Data taken from US20050019420A1, “Fungicide composition comprising pyrimethanil and at least a phosphorous acid derivative and use thereof for fighting against plant diseases” (priority 2001, published 2005).

Test system: Venturia inaequalis
Assay: Apple tree scab field trial, preventive spray programme
Format: in vivo
Conditions: for % of leaves attacked: apple tree Rome Beauty
From the text: Apple Tree—Venturia inaequalis
The following fungicides are compared: • Pyrimethanil at the dose of 20 g/hl and mixtures. • fosetyl-Al+pyrimethanil at the doses of 50+20 and 100+20 g/hl applied in a plant protection mixture volume of 1 200 l/ha.
The products are applied to an apple tree (Rome Beauty variety) which is sensitive to Venturia inaequalis.
The various products to be studied are sprayed every 7, 10 or 13 days (9, 7 and 6 applications in total respectively) in a program of treatment starting on 28 Mar. 2001.
Scores are awarded for the disease (% foliar surface area destroyed) on 14 May and 11 Jun. 2001. The results are expressed as % of leaves attacked.

Cc1cc(C)nc(Nc2ccccc2)n1 [Pyrimethanil, pyrimethanil]
% of leaves attacked (dose (20), sprayed every 7 days (9 applications), scored 11 June 2001): 27.7% | % of leaves attacked (dose (20), sprayed every 7 days (9 applications), scored 14 May 2001): 14.7% | % of leaves attacked (dose (200), sprayed every 10 days (7 applications), scored 11 June 2001): 33% | % of leaves attacked (dose (200), sprayed every 10 days (7 applications), scored 14 May 2001): 16.2% | % of leaves attacked (dose (200), sprayed every 13 days (6 applications), scored 11 June 2001): 32% | % of leaves attacked (dose (200), sprayed every 13 days (6 applications), scored 14 May 2001): 16.3%

CCO[PH](=O)O [fosetyl-AI, monoethyl ester-phosphonate-aluminum]
persistence of the action of pyrimethanil (addition of fosetyl-Al to pyrimethanil, applications every 10 to 13 days compared with weekly applications): improve the persistence of the action of pyrimethanil
